Measurements reported in the NIST ThermoML archive (doi:10.1016/j.tca.2011.07.006).
± gives the expanded uncertainty stated by the source.

Tests used:
[1] = Crystal; DTA
[2] = Molar enthalpy of transition or fusion; details: Crystal; DSC

Normal melting temperature [1] [°C] | Molar enthalpy of transition or fusion [2] [kcal/mol] | Structure (SMILES)
97.0 ± 0.5 | 3.61 ± 0.311 | CCn1cc[n+](C)c1.[Cl-] [1-ethyl-3-methylimidazolium chloride]
6.5 ± 0.5 | 3.3 ± 0.167 | CCn1cc[n+](C)c1.[Cl-].[Cl][Al]([Cl])[Cl] [1-ethyl-3-methyl-1H-imidazolium tetrachloroaluminate]
